System: chronic low back pain
Assay: Treatment of low back pain (herniated disc, lumbar spinal canal stenosis), single-subject case
Assay type: in vivo, human
Conditions: person, before the composition
From the text: The acute pain was managed by a combination of pain killer medication and a series of physical therapies at that time. However, chronic low back pain remained ever since. […] The patient was also subjected to a series of disc decompression treatments (20 treatment sessions).
No medication and other treatment were applied prior to taking the composition of the present invention. Two pills (0.5 g each) of the composition of the present invention were taken by the patient every morning and at night (twice a day). Each pill was composed of Rhizoma Gastrodiae Elatae (˜30-60 mg), dry powder of Manitis (˜70-105 mg), dry powder of Agkistrodon seu Bungarus (˜25-40 mg), roots of Radix Aconiti Lateralis Preparata (˜50-90 mg) and Radix Paeoniae Lactiflorae (˜50-90 mg), Herba Asari cum Radice (˜25-40 mg), Cornu cervi Parvum (˜70-100 mg), Eupolyphaga seu Opisthoplatia (˜25-45 mg), and Sulindac (30 mg). Total daily dosage of Sulindac was 120 mg, which is lower than recommended dosage (400 mg/day). Sulindac is a NSAID for the treatment of arthritis, but not proposed for the treatment of sciatica nerve pain.

Cc1ccc(-c2cc(C(F)(F)F)nn2-c2ccc(S(N)(=O)=O)cc2)cc1 [Celebrex]
pain reduction by earlier prescribed medication: not effective in reducing the pain

Source: patent US20080220084A1, “COMBINATION THERAPY FOR ALLEVIATING PAIN-RELATED CONDITIONS” (Pfantastic Medical Research Institute, LLC, priority 2007, published 2008)
